Experimental data as given in patent US12077503B2, “Substituted cyclic amides and their use as herbicides” (FMC CORPORATION, priority 2015, dated 2024).

Columns and labels:
Format in all cases: in vivo
[1] = system: barnyardgrass (Echinochloa crus-galli); test: Test B flooded paddy test; conditions: Echinochloa crus-galli, 360 h, Flood, 250 g ai/ha; visually evaluated after 13 to 15 d; read-out: Plant response rating, Barnyardgrass (0 to 100 scale where 0 is no effect and 100 is complete control)
Procedure, shortened: (§1)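 Compound goes directly into floodwater once pots are flooded 3 cm above soil, targeting plants at two leaves; the water depth is then held for the test duration. Plants sit 13–15 d in a greenhouse and are rated visually, 100 denoting complete control.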

[2] = system: ducksalad (Heteranthera limosa); test: Test B flooded paddy test; conditions: Heteranthera limosa, 360 h, Flood, 250 g ai/ha; visually evaluated after 13 to 15 d; read-out: Plant response rating, Ducksalad (0 to 100 scale where 0 is no effect and 100 is complete control)
Procedure, shortened: as §1

rice (Oryra sativa) = test: Test B flooded paddy test; conditions: Oryza sativa, 360 h, Flood, 250 g ai/ha; visually evaluated after 13 to 15 d; read-out: Plant response rating, Rice (0 to 100 scale where 0 is no effect and 100 is complete control)
Procedure, shortened: as §1

[3] = system: sedge, umbrella (small-flower umbrella sedge, Cyperus difformis); test: Test B flooded paddy test; conditions: Cyperus difformis, 360 h, Flood, 250 g ai/ha; visually evaluated after 13 to 15 d; read-out: Plant response rating, Sedge, Umbrella (0 to 100 scale where 0 is no effect and 100 is complete control)
Procedure, shortened: as §1

[4] = system: barnyardgrass (Echinochloa crus-galli); test: Test A preemergence; conditions: Echinochloa crus-galli, pre-emergence, 240 h, 0 to 100 scale (0 no effect, 100 complete control), read-out: Plant response rating, Barnyardgrass; for pest or weed control at 500 g/ha: 500 g ai/ha, preemergence; for pest or weed control at 125 g/ha: Preemergence, 125 g ai/ha
Procedure, shortened: (§2)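 Treatment is preemergence as a directed soil spray after planting, or postemergence at the one- to two-leaf stage, with test chemical in a non-phytotoxic solvent mixture plus surfactant. Plants stay in the greenhouse about 10 d before visual injury scoring on a 0 to 100 scale versus untreated controls.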

[5] = system: pigweed (Amaranthus retroflexus); test: Test A preemergence; conditions: Amaranthus retroflexus, pre-emergence, 240 h, 0 to 100 scale (0 no effect, 100 complete control), read-out: Plant response rating, Pigweed; for pest or weed control at 500 g/ha: 500 g ai/ha, preemergence; for pest or weed control at 125 g/ha: Preemergence, 125 g ai/ha
[6] = system: giant foxtail (Setaria faberii); test: Test A preemergence; conditions: Setaria faberi, pre-emergence, 240 h, 0 to 100 scale (0 no effect, 100 complete control), read-out: Plant response rating, Foxtail, Giant; for pest or weed control at 500 g/ha: 500 g ai/ha, preemergence; for pest or weed control at 125 g/ha: Preemergence, 125 g ai/ha
Procedure, shortened: as §2

Kochia (Kochia scoparia) [7] = test: Test A preemergence; conditions: Bassia scoparia, pre-emergence, 240 h, 0 to 100 scale (0 no effect, 100 complete control), read-out: Plant response rating, Kochia; for pest or weed control at 500 g/ha: 500 g ai/ha, preemergence; for pest or weed control at 125 g/ha: Preemergence, 125 g ai/ha
Procedure, shortened: as §2

[8] = system: ragweed (common ragweed, Ambrosia elatior); test: Test A preemergence; conditions: Ambrosia artemisiifolia, pre-emergence, 240 h, 0 to 100 scale (0 no effect, 100 complete control), read-out: Plant response rating, Ragweed; for pest or weed control at 500 g/ha: 500 g ai/ha, preemergence; for pest or weed control at 125 g/ha: Preemergence, 125 g ai/ha
Procedure, shortened: as §2

[9] = system: ryegrass, Italian (Italian ryegrass, Lolium multiflorum); test: Test A preemergence; conditions: Lolium multiflorum, pre-emergence, 240 h, 0 to 100 scale (0 no effect, 100 complete control), read-out: Plant response rating, Ryegrass, Italian; for pest or weed control at 500 g/ha: 500 g ai/ha, preemergence; for pest or weed control at 125 g/ha: Preemergence, 125 g ai/ha
Procedure, shortened: as §2

[10] = system: pigweed (Amaranthus retroflexus); test: Test A postemergence; conditions: Amaranthus retroflexus, post-emergence, 240 h, Postemergence, read-out: Plant response rating, Pigweed; for pest or weed control at 125 g/ha: 125 g ai/ha, visual injury after approx. 10 d, 0 to 100 scale, 0 no effect, 100 complete control; for pest or weed control at 500 g/ha: 500 g ai/ha, visual injury, 0 to 100 scale (0 no effect, 100 complete control), approx. 10 d
Procedure, shortened: as §2

[11] = system: giant foxtail (Setaria faberii); test: Test A postemergence; conditions: Setaria faberi, post-emergence, 240 h, Postemergence, read-out: Plant response rating, Foxtail, Giant; for pest or weed control at 125 g/ha: 125 g ai/ha, visual injury after approx. 10 d, 0 to 100 scale, 0 no effect, 100 complete control; for pest or weed control at 500 g/ha: 500 g ai/ha, visual injury, 0 to 100 scale (0 no effect, 100 complete control), approx. 10 d
Procedure, shortened: as §2

Kochia (Kochia scoparia) [12] = test: Test A postemergence; conditions: Bassia scoparia, post-emergence, 240 h, Postemergence, read-out: Plant response rating, Kochia; for pest or weed control at 125 g/ha: 125 g ai/ha, visual injury after approx. 10 d, 0 to 100 scale, 0 no effect, 100 complete control; for pest or weed control at 500 g/ha: 500 g ai/ha, visual injury, 0 to 100 scale (0 no effect, 100 complete control), approx. 10 d
Procedure, shortened: as §2

[13] = system: ryegrass, Italian (Italian ryegrass, Lolium multiflorum); test: Test A postemergence; conditions: Lolium multiflorum, post-emergence, 240 h, Postemergence, read-out: Plant response rating, Ryegrass, Italian; for pest or weed control at 125 g/ha: 125 g ai/ha, visual injury after approx. 10 d, 0 to 100 scale, 0 no effect, 100 complete control; for pest or weed control at 500 g/ha: 500 g ai/ha, visual injury, 0 to 100 scale (0 no effect, 100 complete control), approx. 10 d
Procedure, shortened: as §2

Compound	pest or weed control at 250 g/ha [1] [%]	pest or weed control at 250 g/ha [2] [%]	pest or weed control at 250 g/ha (rice (Oryra sativa)) [%]	pest or weed control at 250 g/ha [3] [%]	pest or weed control at 500 g/ha [4] [%]	pest or weed control at 125 g/ha [4] [%]	pest or weed control at 500 g/ha [5] [%]	pest or weed control at 125 g/ha [5] [%]	pest or weed control at 500 g/ha [6] [%]	pest or weed control at 125 g/ha [6] [%]	pest or weed control at 500 g/ha (Kochia (Kochia scoparia) [7]) [%]	pest or weed control at 125 g/ha (Kochia (Kochia scoparia) [7]) [%]	pest or weed control at 500 g/ha [8] [%]	pest or weed control at 125 g/ha [8] [%]	pest or weed control at 500 g/ha [9] [%]	pest or weed control at 125 g/ha [9] [%]	pest or weed control at 125 g/ha [10] [%]	pest or weed control at 500 g/ha [10] [%]	pest or weed control at 125 g/ha [11] [%]	pest or weed control at 500 g/ha [11] [%]	further results
CSc1ccccc1NC(=O)[C@H]1C(=O)N(C)C[C@@H]1c1ccc(C(F)(F)F)cc1 [Compound 1391]	0	75	0	0	100	90	90	90	100	100	90	90	90	90	70	30	70	90	90	90	pest or weed control at 125 g/ha (Kochia (Kochia scoparia) [12]): 70%; pest or weed control at 500 g/ha (Kochia (Kochia scoparia) [12]): 80%; pest or weed control at 125 g/ha [13]: 40%; pest or weed control at 500 g/ha [13]: 60%
O=C1NC[C@H](c2cncc(C(F)(F)F)c2)[C@H]1C(=O)Nc1cccc(F)c1F [Compound 1394]	40	75	10	0	90	90	30	0	90	90	60	40	80	20	60	50	0	20	80	90	pest or weed control at 125 g/ha (Kochia (Kochia scoparia) [12]): 0%; pest or weed control at 500 g/ha (Kochia (Kochia scoparia) [12]): 0%; pest or weed control at 125 g/ha [13]: 0%; pest or weed control at 500 g/ha [13]: 20%
